# According to article PMC7413254 (Nature Communications, 2020):
# Like-named read-outs stand apart in the source and are kept apart here.
# Legend:
# non-expressing oocytes [1] = format: cell-based, Xenopus laevis; conditions: total [3H]CQ transport; for Uptake of [3H]CQ (% non-expressing oocyte control), trans-stimulation: non-expressing oocytes, normalised to the oocyte type control; for Uptake of [3H]CQ (% PfCRTDd2 control), trans-stimulation, non-expressing oocytes: mean ± SEM, SEM
# How it was run: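 Oocytes (ten per treatment, ≥4 independent frogs/days) were preloaded by injecting VF-6 in 25 nL ND96 at pH 5.0, 5.5, 6.0 or 7.0, or Na^+-free choline buffer, then uptake run 1.5 h, 27.5 °C, ND96 pH 5.5 by default. Internal concentrations assumed ~400 nL oocyte volume.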
# PfCRT^3D7 [2] = target: T1, PfCRT^3D7 (Plasmodium falciparum, UniProt Q8IBZ9); test: cell-based; format: cell-based; conditions: total [3H]CQ transport; for inhibition at 500 µM: [test solute] = 0.5 mM; for inhibition at 1000 µM: [test solute] = 1 mM; for inhibition at 2000 µM: [test solute] = 2 mM
# How it was run: (§1)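 PfCRT-expressing and control oocytes: ND96 pH 5.5 → 1.5 h at 27.5 °C → ice-cold ND96 wash → 10% SDS lysis → scintillation count.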
# non-expressing oocytes [3] = test: cells; format: cell-based, Xenopus laevis; conditions: Xenopus laevis, total [3H]CQ transport; for inhibition at 500 µM: [test solute] = 0.5 mM; for inhibition at 1000 µM: [test solute] = 1 mM; for inhibition at 2000 µM: [test solute] = 2 mM
# How it was run: as §1
# PfCRT^3D7 [4] = target: T1, PfCRT^3D7; test: cell-based; format: cell-based
# How it was run: (§2)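 Transport measured in Xenopus oocytes expressing the transporters, 1.5 h at 27.5 °C in ND96 pH 5.5 unless noted. For trans-stimulation, VF-6 injected in 25 nL ND96 at pH 5.0–7.0 or Na^+-free (choline) buffer; intracellular levels based on ~400 nL oocyte volume. Ten oocytes per treatment, ≥4 experiments.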
# PfNT1 = target: T2, PfNT1 (Plasmodium falciparum, UniProt Q8IDM6); test: cell-based; format: cell-based; conditions: for activity at 5000 µM: total [3H]CQ transport
# T2 construct: expressed in transfected cells; host or cells: Xenopus laevis oocytes (stage V-VI), cRNA-injected
# How it was run: as §2
# PfCRT^Ecu1110 [5] = target: T3, PfCRT^Ecu1110 (Plasmodium falciparum, UniProt Q9N623, A220S/I356L/K76T/N326D); test: cell-based; format: cell-based; conditions: […]
# How it was run: as §2
# PfCRT^Dd2 [6] = target: T4, PfCRT^Dd2 (Plasmodium falciparum, UniProt Q9N623, A220S/I356T/K76T/M74I/N326S/N75E/Q271E/R371I); test: cell-based; format: cell-based; conditions: […]; for activity at 45000 µM: [test solute]i = 45 mM (30 mM for some solutes due to solubility)
# How it was run: as §2
# PfCRT [7] = test: Influx of VF-6 via PfCRT into the oocyte, solutes tested as potential co-substrates; format: cell-based, Plasmodium falciparum; set-up: key: X: Compounds that have been tested as potential co-substrates but are not required for influx of VF-6 via PfCRT into the oocyte; conditions: X marks the solute
# PfCRT [8] = test: Potential co-substrates tested for influx of VF-6 via PfCRT into the oocyte; format: cell-based, Plasmodium falciparum; set-up: key: X: Compounds that have been tested as potential co-substrates but are not required for influx of VF-6 via PfCRT into the oocyte
# PfCRT^Ecu1110 [9] = target: T3, PfCRT^Ecu1110; test: [3H]CQ uptake into Xenopus oocytes, cis-inhibition by unlabelled solute; format: cell-based
# How it was run: as §1
# PfCRT^Dd2 [10] = target: T4, PfCRT^Dd2; test: as above; format: cell-based
# How it was run: as §1
# [11] = PfCRT3D7 oocytes, normalised to the oocyte type control, read-out: Uptake of [3H]CQ (% PfCRT3D7 control), cis-inhibition
# [12] = mean ± SEM, SEM, read-out: Uptake of [3H]CQ (% PfCRTDd2 control), cis-inhibition, PfCRT3D7
# [13] = Oocyte, mean ± SEM, SEM, read-out: Uptake of [3H]CQ (% PfCRTDd2 control), cis-inhibition, non-expressing oocytes
# [14] = non-expressing oocytes, normalised to the oocyte type control, read-out: Uptake of [3H]CQ (% non-expressing oocyte control), cis-inhibition
# [15] = read-out: PfCRT-mediated [3H]CQ transport, cis-inhibition (% PfCRTEcu1110 control)
# [16] = read-out: Uptake of [3H]CQ (% PfCRTDd2 control), cis-inhibition, PfCRTEcu1110, SEM
# [17] = read-out: Uptake of [3H]CQ (% PfCRTEcu1110 control), cis-inhibition
# [18] = read-out: [3H]CQ transport (% PfCRTEcu1110 control), cis-inhibition, PfCRTEcu1110, SEM
# [19] = read-out: PfCRT-mediated [3H]CQ transport, cis-inhibition (% PfCRTDd2 control)
# [20] = read-out: Uptake of [3H]CQ (% PfCRTDd2 control), cis-inhibition, PfCRTDd2, SEM
# T2 sequence (Q8IDM6 whole entry): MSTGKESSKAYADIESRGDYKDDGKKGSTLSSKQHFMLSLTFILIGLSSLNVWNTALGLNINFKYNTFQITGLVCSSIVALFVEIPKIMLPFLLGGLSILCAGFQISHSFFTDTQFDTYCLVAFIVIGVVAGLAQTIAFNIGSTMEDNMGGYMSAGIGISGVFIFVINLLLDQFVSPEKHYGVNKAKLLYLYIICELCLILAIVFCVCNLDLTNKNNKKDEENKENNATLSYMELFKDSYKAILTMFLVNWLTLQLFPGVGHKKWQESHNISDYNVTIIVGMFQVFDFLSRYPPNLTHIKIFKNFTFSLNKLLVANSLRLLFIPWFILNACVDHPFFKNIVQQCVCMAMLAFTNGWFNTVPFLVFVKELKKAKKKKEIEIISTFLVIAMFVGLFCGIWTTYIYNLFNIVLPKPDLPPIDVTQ
# T1 sequence (Q8IBZ9 59-398): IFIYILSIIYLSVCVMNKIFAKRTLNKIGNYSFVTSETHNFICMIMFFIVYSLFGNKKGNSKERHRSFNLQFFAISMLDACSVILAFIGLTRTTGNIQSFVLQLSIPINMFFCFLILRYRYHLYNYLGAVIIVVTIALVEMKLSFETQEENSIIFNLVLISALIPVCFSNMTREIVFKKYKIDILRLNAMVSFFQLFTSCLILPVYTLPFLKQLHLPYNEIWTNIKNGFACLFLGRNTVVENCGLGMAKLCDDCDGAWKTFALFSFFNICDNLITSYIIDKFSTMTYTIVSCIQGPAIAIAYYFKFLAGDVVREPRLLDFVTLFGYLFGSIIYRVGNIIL
# T3 sequence (Q9N623 whole entry A220S/I356L/K76T/N326D): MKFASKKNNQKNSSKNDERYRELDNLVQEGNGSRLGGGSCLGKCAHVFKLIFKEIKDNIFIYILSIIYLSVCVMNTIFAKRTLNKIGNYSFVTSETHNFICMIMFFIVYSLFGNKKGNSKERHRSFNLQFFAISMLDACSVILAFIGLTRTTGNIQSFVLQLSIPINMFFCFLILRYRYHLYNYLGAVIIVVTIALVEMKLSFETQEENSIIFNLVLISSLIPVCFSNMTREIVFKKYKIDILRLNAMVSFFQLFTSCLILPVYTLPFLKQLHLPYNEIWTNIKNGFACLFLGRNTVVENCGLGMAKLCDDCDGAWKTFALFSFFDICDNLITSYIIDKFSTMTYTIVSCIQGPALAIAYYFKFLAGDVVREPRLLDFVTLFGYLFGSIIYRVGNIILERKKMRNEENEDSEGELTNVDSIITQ
# T4 sequence (Q9N623 whole entry A220S/I356T/K76T/M74I/N326S/N75E/Q271E/R371I): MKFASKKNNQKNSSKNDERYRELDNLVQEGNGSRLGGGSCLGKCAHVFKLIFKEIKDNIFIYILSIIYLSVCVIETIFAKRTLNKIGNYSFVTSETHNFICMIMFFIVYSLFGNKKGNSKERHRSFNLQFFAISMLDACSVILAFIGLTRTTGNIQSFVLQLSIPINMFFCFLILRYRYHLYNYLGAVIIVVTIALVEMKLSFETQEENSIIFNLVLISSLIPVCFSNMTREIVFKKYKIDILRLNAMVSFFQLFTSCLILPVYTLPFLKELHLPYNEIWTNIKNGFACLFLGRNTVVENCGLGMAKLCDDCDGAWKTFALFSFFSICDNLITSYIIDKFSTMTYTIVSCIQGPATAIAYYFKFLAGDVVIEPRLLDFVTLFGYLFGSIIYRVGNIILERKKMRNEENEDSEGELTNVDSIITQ
smiles,measurement,setting,value
CC[C@H](C)[C@H](N)C(=O)O [L-isoleucine],"Uptake of [3H]CQ (% non-expressing oocyte control), trans-stimulation",non-expressing oocytes [1]; [test solute]i = 5 mM,97 ± 1.3 % non-expressing oocyte control
same,"Uptake of [3H]CQ (% non-expressing oocyte control), trans-stimulation",non-expressing oocytes [1]; [test solute]i = 45 mM (30 mM for some solutes due to solubility),100 ± 2.7 % non-expressing oocyte control
same,"Uptake of [3H]CQ (% PfCRTDd2 control), trans-stimulation, non-expressing oocytes",non-expressing oocytes [1]; [test solute]i = 5 mM (intracellular),3.2 ± 0.06 % PfCRTDd2 control
same,"Uptake of [3H]CQ (% PfCRTDd2 control), trans-stimulation, non-expressing oocytes",non-expressing oocytes [1]; [test solute]i = 45 mM (intracellular; 30 mM for some solutes due to solubility),2.5 ± 0.05 % PfCRTDd2 control
same,inhibition at 500 µM,PfCRT^3D7 [2]; [11],99 ± 4.7%
same,inhibition at 1000 µM,PfCRT^3D7 [2]; [11],98 ± 5.7%
same,inhibition at 2000 µM,PfCRT^3D7 [2]; [11],102 ± 4.7%
same,inhibition at 500 µM,PfCRT^3D7 [2]; [12],3.1 ± 0.07%
same,inhibition at 1000 µM,PfCRT^3D7 [2]; [12],2.8 ± 0.04%
same,inhibition at 2000 µM,PfCRT^3D7 [2]; [12],2.8 ± 0.02%
same,inhibition at 500 µM,non-expressing oocytes [3]; [13],2.7 ± 0.08%
same,inhibition at 1000 µM,non-expressing oocytes [3]; [13],3.3 ± 0.03%
same,inhibition at 2000 µM,non-expressing oocytes [3]; [13],2.4 ± 0.07%
same,inhibition at 500 µM,non-expressing oocytes [3]; [14],94 ± 7.5%
same,inhibition at 1000 µM,non-expressing oocytes [3]; [14],100 ± 4.5%
same,inhibition at 2000 µM,non-expressing oocytes [3]; [14],101 ± 3.2%
same,activity at 5000 µM,"PfCRT^3D7 [4]; PfCRT3D7 oocytes, [test solute]i = 5 mM, total [3H]CQ transport, normalised to the oocyte type control, read-out: Uptake of [3H]CQ (% PfCRT3D7 control), trans-stimulation",100 ± 3.6%
same,"[3H]CQ transport (% PfCRT3D7 control), trans-stimulation, PfCRT3D7",PfCRT^3D7 [4]; SEM,0.3 ± 0.02 % PfCRT3D7 control
same,activity at 5000 µM,"PfCRT^3D7 [4]; [test solute]i = 5 mM (intracellular), PfCRT3D7 oocytes, normalised to oocyte type control, read-out: PfCRT-mediated [3H]CQ transport, trans-stimulation (% PfCRT3D7 control)",98 ± 4.1%
same,activity at 45000 µM,"PfCRT^3D7 [4]; SEM, read-out: Uptake of [3H]CQ (% PfCRTDd2 control), trans-stimulation, PfCRT3D7",3.3 ± 0.01%
same,activity at 45000 µM,"PfCRT^3D7 [4]; read-out: PfCRT-mediated [3H]CQ transport, trans-stimulation (% PfCRT3D7 control)",96 ± 3.5%
same,activity at 45000 µM,"PfCRT^3D7 [4]; read-out: Uptake of [3H]CQ (% PfCRT3D7 control), trans-stimulation",98 ± 4.3%
same,activity at 5000 µM,"PfCRT^3D7 [4]; total [3H]CQ transport, [test solute]i = 5 mM (intracellular), mean ± SEM, SEM, read-out: Uptake of [3H]CQ (% PfCRTDd2 control), trans-stimulation, PfCRT3D7",3.3 ± 0.02%
same,activity at 5000 µM,"PfNT1; PfNT1 oocytes, [test solute]i = 5 mM, normalised to the oocyte type control, read-out: Uptake of [3H]CQ (% PfNT1 control), trans-stimulation",98 ± 2.2%
same,activity at 45000 µM,"PfNT1; SEM, read-out: Uptake of [3H]CQ (% PfCRTDd2 control), trans-stimulation, PfNT1",2.2 ± 0.03%
same,activity at 45000 µM,"PfNT1; read-out: Uptake of [3H]CQ (% PfNT1 control), trans-stimulation",100 ± 2.5%
same,activity at 5000 µM,"PfNT1; [test solute]i = 5 mM (intracellular), mean ± SEM, SEM, read-out: Uptake of [3H]CQ (% PfCRTDd2 control), trans-stimulation, PfNT1",3.1 ± 0.02%
same,activity at 5000 µM,"PfCRT^Ecu1110 [5]; pH 5.5, read-out: PfCRT-mediated [3H]CQ transport, trans-stimulation (% PfCRTEcu1110 control), [test solute]i = 5 mM (intracellular), PfCRTEcu1110 oocytes, normalised to oocyte type control",97 ± 2.1%
same,activity at 5000 µM,"PfCRT^Ecu1110 [5]; pH 5.5, read-out: Uptake of [3H]CQ (% PfCRTEcu1110 control), trans-stimulation, PfCRTEcu1110 oocytes, [test solute]i = 5 mM, total [3H]CQ transport, normalised to the oocyte type control",99 ± 3.5%
same,activity at 45000 µM,"PfCRT^Ecu1110 [5]; pH 5.5, read-out: Uptake of [3H]CQ (% PfCRTEcu1110 control), trans-stimulation, PfCRTEcu1110 oocytes, [test solute]i = 45 mM (30 mM for some solutes due to solubility), total [3H]CQ transport, normalised to the oocyte type control",99 ± 3.2%
same,activity at 5000 µM,"PfCRT^Ecu1110 [5]; read-out: Uptake of [3H]CQ (% PfCRTDd2 control), trans-stimulation, PfCRTEcu1110, total [3H]CQ transport, [test solute]i = 5 mM (intracellular), mean ± SEM, SEM",35 ± 1.5%
same,activity at 45000 µM,"PfCRT^Ecu1110 [5]; read-out: Uptake of [3H]CQ (% PfCRTDd2 control), trans-stimulation, PfCRTEcu1110, total [3H]CQ transport, [test solute]i = 45 mM (intracellular; 30 mM for some solutes due to solubility), mean ± SEM, SEM",35 ± 1.1%
same,activity at 5000 µM,"PfCRT^Dd2 [6]; pH 5.5, read-out: PfCRT-mediated [3H]CQ transport, trans-stimulation (% PfCRTDd2 control), [test solute]i = 5 mM (intracellular), PfCRTDd2 oocytes, normalised to oocyte type control",94 ± 5.1%
same,activity at 5000 µM,"PfCRT^Dd2 [6]; pH 5.5, read-out: Uptake of [3H]CQ (% PfCRTDd2 control), trans-stimulation, PfCRTDd2, total [3H]CQ transport, [test solute]i = 5 mM (intracellular), mean ± SEM, SEM",96 ± 4.4%
same,activity at 5000 µM,"PfCRT^Dd2 [6]; pH 5.5, read-out: Uptake of [3H]CQ (% PfCRTDd2 control), trans-stimulation, PfCRTDd2 oocytes, [test solute]i = 5 mM, total [3H]CQ transport, normalised to the oocyte type control",96 ± 4.4%
same,activity at 45000 µM,"PfCRT^Dd2 [6]; pH 5.5, read-out: Uptake of [3H]CQ (% PfCRTDd2 control), trans-stimulation, PfCRTDd2 oocytes, total [3H]CQ transport, normalised to the oocyte type control",100 ± 2.2%
same,activity at 5000 µM,"PfCRT^Dd2 [6]; pH 5.5, read-out: [3H]CQ transport (% PfCRTDd2 control), trans-stimulation, PfCRTDd2, trans-stimulation, [test solute]i = 5 mM (injected), PfCRT-mediated component (background subtracted), mean ± SEM, SEM",94 ± 5.1%
same,activity at 45000 µM,"PfCRT^Dd2 [6]; pH 5.5, read-out: [3H]CQ transport (% PfCRTDd2 control), trans-stimulation, PfCRTDd2, trans-stimulation, PfCRT-mediated component (background subtracted), mean ± SEM, SEM",98 ± 3.6%
same,Compounds that have been tested as potential co-substrates but are not required for influx of VF-6 via PfCRT into the oocyte,PfCRT [7],X
same,Tested as potential co-substrate but not required for influx of VF-6 via PfCRT into the oocyte,PfCRT [8],X
same,inhibition at 500 µM,PfCRT^Ecu1110 [9]; [15],93 ± 5.9%
same,inhibition at 1000 µM,PfCRT^Ecu1110 [9]; [15],98 ± 4.1%
same,inhibition at 2000 µM,PfCRT^Ecu1110 [9]; [15],98 ± 5.2%
same,inhibition at 500 µM,PfCRT^Ecu1110 [9]; [16],31 ± 1.7%
same,inhibition at 1000 µM,PfCRT^Ecu1110 [9]; [16],33 ± 1.8%
same,inhibition at 2000 µM,PfCRT^Ecu1110 [9]; [16],33 ± 1.5%
same,inhibition at 500 µM,PfCRT^Ecu1110 [9]; [17],96 ± 6.9%
same,inhibition at 1000 µM,PfCRT^Ecu1110 [9]; [17],100 ± 6.9%
same,inhibition at 2000 µM,PfCRT^Ecu1110 [9]; [17],101 ± 9.5%
same,inhibition at 500 µM,PfCRT^Ecu1110 [9]; [18],28 ± 0.3%
same,inhibition at 1000 µM,PfCRT^Ecu1110 [9]; [18],30 ± 0.6%
same,inhibition at 2000 µM,PfCRT^Ecu1110 [9]; [18],30 ± 0.5%
same,inhibition at 500 µM,PfCRT^Dd2 [10]; [19],95 ± 5.1%
same,inhibition at 2000 µM,PfCRT^Dd2 [10]; [19],96 ± 3.7%
same,inhibition at 500 µM,PfCRT^Dd2 [10]; [20],97 ± 4.9%
same,inhibition at 1000 µM,PfCRT^Dd2 [10]; [20],100 ± 6.5%
same,inhibition at 2000 µM,PfCRT^Dd2 [10]; [20],98 ± 6.2%
